≈ marks a conversion by molar mass, not a printed value. Like-named read-outs stand apart in the source and are kept apart here.
Key:
Assay in all cases: Minimum inhibitory concentration (MIC) by agar dilution
Type in all cases: cell-based
[1] = system: Klebsiella pneumoniae
Method: (§1) The antibacterial activity of the compounds of Formula IC was determined by using standard testing procedures such as the determination of minimum inhibitory concentration (MIC) by agar dilution as described in "Methods for Dilution Antimicrobial Susceptibility Tests for Bacteria That Grow Aerobically" (MFT) published January 1983 by the National Committee for Clinical Laboratory Standards, 771 East Lancaster Avenue, Villanova, Pa. 19084, USA. Briefly, MIC values are determined in unsupplemented Mueller Hinton Agar (MHA). The compounds tested are diluted serially into molten MHA at 47° C. The agar is poured into petri dishes and allowed to harden. The various bacteria used for testing are grown overnight on MHA at 35° C. and transferred to Trypticase soy broth (TSB) until a turbidity of 0.5 McFarland standard is obtained. The bacteria are diluted one to 20 in TSB and inoculated on the plates (1 μl using a Steers replicator).
as §1, with “Compounds of this invention can also be tested for in vitro antimicrobial” for “The antibacterial”, “activity” for “activity of the compounds of Formula IC was determined by”, “Jan.” for “January”, “Penna.” for “Pa.”, “(1μl” for “(1 μl”, “replicator). […] The MIC test results of selected of Formula B compounds of this invention are found in Tables B2-B9.” for “replicator).”

[2] = system: Pseudomonas aeruginosa; settings: Pseudomonas aeruginosa
Method: as §1
as §1, with “Compounds of this invention can also be tested for in vitro antimicrobial” for “The antibacterial”, “activity” for “activity of the compounds of Formula IC was determined by”, “Jan.” for “January”, “Penna.” for “Pa.”, “(1μl” for “(1 μl”, “replicator). […] The MIC test results of selected of Formula B compounds of this invention are found in Tables B2-B9.” for “replicator).”

[3] = system: Staphylococcus epidermidis; settings: 20 h
Method: as §1
as §1, with “Compounds of this invention can also be tested for in vitro antimicrobial” for “The antibacterial”, “activity” for “activity of the compounds of Formula IC was determined by”, “Jan.” for “January”, “Penna.” for “Pa.”, “(1μl” for “(1 μl”, “replicator). […] The MIC test results of selected of Formula B compounds of this invention are found in Tables B2-B9.” for “replicator).”

[4] = system: Acinetobacter calcoaceticus; settings: Acinetobacter calcoaceticus
Method: as §1
as §1, with “Compounds of this invention can also be tested for in vitro antimicrobial” for “The antibacterial”, “activity” for “activity of the compounds of Formula IC was determined by”, “Jan.” for “January”, “Penna.” for “Pa.”, “(1μl” for “(1 μl”, “replicator). […] The MIC test results of selected of Formula B compounds of this invention are found in Tables B2-B9.” for “replicator).”

[5] = system: Serratia marcescens; settings: 20 h, read-out: MINIMUM INHIBITORY CONCENTRATION
Method: as §1
as §1, with “Compounds of this invention can also be tested for in vitro antimicrobial” for “The antibacterial”, “activity” for “activity of the compounds of Formula IC was determined by”, “Jan.” for “January”, “Penna.” for “Pa.”, “(1μl” for “(1 μl”, “replicator). […] The MIC test results of selected of Formula B compounds of this invention are found in Tables B2-B9.” for “replicator).”

[6] = system: Escherichia coli; settings: Escherichia coli
Method: as §1
as §1, with “Compounds of this invention can also be tested for in vitro antimicrobial” for “The antibacterial”, “activity” for “activity of the compounds of Formula IC was determined by”, “Jan.” for “January”, “Penna.” for “Pa.”, “(1μl” for “(1 μl”, “replicator). […] The MIC test results of selected of Formula B compounds of this invention are found in Tables B2-B9.” for “replicator).”

[7] = system: Staphylococcus aureus; settings: Staphylococcus aureus
Method: as §1
as §1, with “Compounds of this invention can also be tested for in vitro antimicrobial” for “The antibacterial”, “activity” for “activity of the compounds of Formula IC was determined by”, “Jan.” for “January”, “Penna.” for “Pa.”, “(1μl” for “(1 μl”, “replicator). […] The MIC test results of selected of Formula B compounds of this invention are found in Tables B2-B9.” for “replicator).”

[8] = system: Streptococcus faecalis; settings: Enterococcus faecalis
Method: as §1
as §1, with “Compounds of this invention can also be tested for in vitro antimicrobial” for “The antibacterial”, “activity” for “activity of the compounds of Formula IC was determined by”, “Jan.” for “January”, “Penna.” for “Pa.”, “(1μl” for “(1 μl”, “replicator). […] The MIC test results of selected of Formula B compounds of this invention are found in Tables B2-B9.” for “replicator).”

[9] = system: Streptococcus pneumoniae; settings: Streptococcus pneumoniae
Method: as §1
as §1, with “Compounds of this invention can also be tested for in vitro antimicrobial” for “The antibacterial”, “activity” for “activity of the compounds of Formula IC was determined by”, “Jan.” for “January”, “Penna.” for “Pa.”, “(1μl” for “(1 μl”, “replicator). […] The MIC test results of selected of Formula B compounds of this invention are found in Tables B2-B9.” for “replicator).”

[10] = system: Streptococcus pyogenes; settings: Streptococcus pyogenes
Method: as §1
as §1, with “Compounds of this invention can also be tested for in vitro antimicrobial” for “The antibacterial”, “activity” for “activity of the compounds of Formula IC was determined by”, “Jan.” for “January”, “Penna.” for “Pa.”, “(1μl” for “(1 μl”, “replicator). […] The MIC test results of selected of Formula B compounds of this invention are found in Tables B2-B9.” for “replicator).”

[11] = system: Citerobacter freundii
Method: as §1
as §1, with “Compounds of this invention can also be tested for in vitro antimicrobial” for “The antibacterial”, “activity” for “activity of the compounds of Formula IC was determined by”, “Jan.” for “January”, “Penna.” for “Pa.”, “(1μl” for “(1 μl”, “replicator). […] The MIC test results of selected of Formula B compounds of this invention are found in Tables B2-B9.” for “replicator).”

[12] = system: Proteus penneri; settings: Proteus penneri
Method: as §1
as §1, with “Compounds of this invention can also be tested for in vitro antimicrobial” for “The antibacterial”, “activity” for “activity of the compounds of Formula IC was determined by”, “Jan.” for “January”, “Penna.” for “Pa.”, “(1μl” for “(1 μl”, “replicator). […] The MIC test results of selected of Formula B compounds of this invention are found in Tables B2-B9.” for “replicator).”

[13] = system: Enterobacter cloacae
Method: Briefly, MIC values are determined in unsupplemented Mueller Hinton Agar (MHA). The compounds tested are diluted serially into molten MHA at 47° C. The agar is poured into petri dishes and allowed to harden. The various bacteria used for testing are grown overnight on MHA at 35° C. and transferred to Trypticase soy broth (TSB) until a turbidity of 0.5 McFarland standard is obtained. The bacteria are diluted one to 20 in TSB and inoculated on the plates (1 μl using a Steers replicator).
as §1, with “Compounds of this invention can also be tested for in vitro antimicrobial” for “The antibacterial”, “activity” for “activity of the compounds of Formula IC was determined by”, “Jan. […]” for “January 1983 by the National Committee for Clinical Laboratory Standards, 771 East Lancaster Avenue, Villanova, Pa. 19084, USA.”, “(1μl” for “(1 μl”

[14] = 20 h, read-out: MINIMUM INHIBITORY CONCENTRATION

Structure (SMILES): O=C(O)c1cn(C23CC(C2)C3)c2nc(N3CCC(O)C3)c(F)cc2c1=O (racemic) [No. 91, 7-(3-hydroxy-1-pyrrolidinyl)-1-(bicyclo[1.1.1]pent-1-yl)-1,4-dihydro-6-fluoro-4-oxo-1,8-naphthyridine-3-carboxylic acid]
- MIC [1, 14]: 0.5 µg/mL (≈ 1.39 µM)
- MIC ([2]; 20 h, read-out: MINIMUM INHIBITORY CONCENTRATION, Cult No. 6676, MHA): 4 µg/mL (≈ 11.1 µM)
- MIC ([2]; 20 h, read-out: MINIMUM INHIBITORY CONCENTRATION, Cult No. 9191, MHA): 2 µg/mL (≈ 5.57 µM)
- MIC ([2]; 20 h, read-out: MINIMUM INHIBITORY CONCENTRATION, Cult No. 12120, MHA): 2 µg/mL (≈ 5.57 µM)
- MIC ([3]; read-out: MINIMUM INHIBITORY CONCENTRATION): 0.125 µg/mL (≈ 0.348 µM)
- MIC ([4]; 20 h, read-out: MINIMUM INHIBITORY CONCENTRATION, Cult No. 12170, MHA): 0.5 µg/mL (≈ 1.39 µM)
- MIC [5]: 1 µg/mL (≈ 2.78 µM)
- MIC ([6]; 20 h, read-out: MINIMUM INHIBITORY CONCENTRATION, Cult No. 6674, MHA): 0.125 µg/mL (≈ 0.348 µM)
- MIC ([6]; 20 h, read-out: MINIMUM INHIBITORY CONCENTRATION, Cult No. 9451, MHA): 0.25 µg/mL (≈ 0.696 µM)
- MIC ([6]; 20 h, read-out: MINIMUM INHIBITORY CONCENTRATION, Cult No. 9855, MHA): 0.25 µg/mL (≈ 0.696 µM)
- MIC ([6]; 20 h, read-out: MINIMUM INHIBITORY CONCENTRATION, Cult No. 9952, MHA): 0.125 µg/mL (≈ 0.348 µM)
- MIC ([7]; 20 h, read-out: MINIMUM INHIBITORY CONCENTRATION, Cult No. 6685, MHA): 0.06 µg/mL (≈ 0.167 µM)
- MIC ([7]; 20 h, read-out: MINIMUM INHIBITORY CONCENTRATION, Cult No. 9213, MHA): 0.125 µg/mL (≈ 0.348 µM)
- MIC ([7]; 20 h, read-out: MINIMUM INHIBITORY CONCENTRATION, Cult No. 9218, MHA): 0.125 µg/mL (≈ 0.348 µM)
- MIC ([7]; 20 h, read-out: MINIMUM INHIBITORY CONCENTRATION, Cult No. 9271, MHA): 0.125 µg/mL (≈ 0.348 µM)
- MIC [8, 14]: 1 µg/mL (≈ 2.78 µM)
- MIC ([9]; 20 h, read-out: MINIMUM INHIBITORY CONCENTRATION, Cult No. 41, MHA): 1 µg/mL (≈ 2.78 µM)
- MIC ([10]; 20 h, read-out: MINIMUM INHIBITORY CONCENTRATION, Cult No. 152, MHA): 2 µg/mL (≈ 5.57 µM)
- MIC [11, 14]: 0.25 µg/mL (≈ 0.696 µM)
- MIC ([12]; 20 h, read-out: MINIMUM INHIBITORY CONCENTRATION, Cult No. 9679, MHA): 1 µg/mL (≈ 2.78 µM)
- MIC [13, 14]: 0.25 µg/mL (≈ 0.696 µM)

Structure (SMILES): C#CC(C)(C)n1cc(C(=O)O)c(=O)c2cc(F)c(N3CCC(N)C3)nc21.CS(=O)(=O)O (racemic) [E, (+,-)-7-(3-amino-1-pyrrolidinyl)-1,4-dihydro-1-(1,1-dimethyl-2-propynyl)-6-fluoro-4-oxo-1,8-naphthyridine-3-carboxylic acid methanesulfonate]
- MIC ([1]; UC12081, 20 h, K. pneumoniae UC 12081, Table CI, read-out: Minimum Inhibitory Concentration): 0.125 µg/mL
- MIC ([2]; UC6676, 20 h, Ps. aeruginosa UC 6676, Table CI, read-out: Minimum Inhibitory Concentration): 2 µg/mL
- MIC ([2]; UC9191, 20 h, Ps. aeruginosa UC 9191, Table CI, read-out: Minimum Inhibitory Concentration): 1 µg/mL
- MIC ([2]; UC12120, 20 h, Ps. aeruginosa UC 12120, Table CI, read-out: Minimum Inhibitory Concentration): 0.5 µg/mL
- MIC ([3]; S. epidermidis 30031, Table CI, read-out: Minimum Inhibitory Concentration): 0.125 µg/mL
- MIC ([4]; UC12170, 20 h, A. calcoaceticus UC 12170, Table CI, read-out: Minimum Inhibitory Concentration): 0.25 µg/mL
- MIC ([6]; UC6674, 20 h, E. coli UC 6674, Table CI, read-out: Minimum Inhibitory Concentration): 0.06 µg/mL
- MIC ([6]; UC9451, 20 h, E. coli UC 9451, Table CI, read-out: Minimum Inhibitory Concentration): 0.06 µg/mL
- MIC ([6]; UC9855, 20 h, E. coli UC 9855, Table CI, read-out: Minimum Inhibitory Concentration): 0.06 µg/mL
- MIC ([6]; UC9952, 20 h, E. coli UC 9952, Table CI, read-out: Minimum Inhibitory Concentration): 0.06 µg/mL
- MIC ([7]; UC6685, 20 h, S. aureus UC 6685, Table CI, read-out: Minimum Inhibitory Concentration): 0.125 µg/mL
- MIC ([7]; UC9213, 20 h, S. aureus UC 9213, Table CI, read-out: Minimum Inhibitory Concentration): 0.25 µg/mL
- MIC ([7]; UC9218, 20 h, S. aureus UC 9218, Table CI, read-out: Minimum Inhibitory Concentration): 0.25 µg/mL
- MIC ([7]; UC9271, 20 h, S. aureus UC 9271, Table CI, read-out: Minimum Inhibitory Concentration): 0.25 µg/mL
- MIC ([8]; UC9217, 20 h, S. faecalis UC 9217, Table CI, read-out: Minimum Inhibitory Concentration): 1 µg/mL
- MIC ([9]; UC41, 20 h, S. pneumoniae UC 41, Table CI, read-out: Minimum Inhibitory Concentration): 0.5 µg/mL
- MIC ([10]; UC152, 20 h, S. pyogenes UC 152, Table CI, read-out: Minimum Inhibitory Concentration): 0.25 µg/mL
- MIC ([11]; Citrobacter freundii, UC3507, 20 h, C. freundii UC 3507, Table CI, read-out: Minimum Inhibitory Concentration): 0.06 µg/mL
- MIC ([12]; UC9679, 20 h, P. penneri UC 9679, Table CI, read-out: Minimum Inhibitory Concentration): 0.5 µg/mL
- MIC ([13]; UC9382, 20 h, E. cloacae UC 9382, Table CI, read-out: Minimum Inhibitory Concentration): 0.06 µg/mL

Source: US5262417A, “Antibacterial quinolone compounds” (The Upjohn Company, priority 1991, dated 1993)
